Test results as given in ChEMBL document CHEMBL1147966, “Remarkable drug-release enhancement with an elimination-based AB3 self-immolative dendritic amplifier” (Bioorg Med Chem, 2007).

Legend:
MOLT-3 [1] = experiment: Antitumor activity against human MOLT3 cells in presence of Penicillin-G-amidase after 72 hrs by XTT assay; format: functional, cell-based; conditions: MOLT-3, 72 h
MOLT-3 [2] = experiment: Antitumor activity against human MOLT3 cells in absence of Penicillin-G-amidase after 72 hrs by XTT assay; format: functional, cell-based; conditions: MOLT-3, 72 h

Row | SMILES | IC50 (MOLT-3 [1]) [µM] | IC50 (MOLT-3 [2]) [µM]
1 | O=C(Cc1ccccc1)Nc1ccc(COC(=O)Nc2c(COC(=O)NC(Cc3ccc(N(CCCl)CCCl)cc3)C(=O)O)cc(COC(=O)NC(C(=O)O)c3ccc(N(CCCl)CCCl)cc3)cc2COC(=O)NC(Cc2ccc(N(CCCl)CCCl)cc2)C(=O)O)cc1 (stereo not given) | 0.5 | 100
2 | CN(CCN(C)C(=O)Oc1c(COC(=O)NC(Cc2ccc(N(CCCl)CCCl)cc2)C(=O)O)cc(COC(=O)NC(C(=O)O)c2ccc(N(CCCl)CCCl)cc2)cc1COC(=O)NC(Cc1ccc(N(CCCl)CCCl)cc1)C(=O)O)C(=O)OCc1ccc(NC(=O)Cc2ccccc2)cc1 (stereo not given) | 6 | 100
3 | N[C@@H](Cc1ccc(N(CCCl)CCCl)cc1)C(=O)O [MELPHALAN] | 0.3 | –
